Assay results from patent publication US11077090B2, “Compounds and compositions and uses thereof” (Sunovion Pharmaceuticals Inc., priority 2016, dated 2021).

Key:
Type in all cases: in vivo
[1] = system: compound-treated mice; assay: Neuropharmacological assay (SmartCube): behavioral activity signature and minimal effective dose; conditions: for AD: ADHD (probability of activity signature) / AG: analgesic (probability of activity signature) / AX: anxiolytic (probability of activity signature) / CE: cognitive enhancer (probability of activity signature) / DP: anti-depressant (probability of activity signature) / MS: mood stabilizer (probability of activity signature) / PS: anti-psychotic (probability of activity signature) / SD: sedative hypnotic (probability of activity signature) / UN: uncharacterized CNS activity (probability of activity signature): i.p. 15 min before test, most efficacious dose(s)
Method in brief: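 Video-recorded behavior is compared algorithmically against a reference-compound database, yielding class probabilities (best dose reported). Compounds given i.p. in NMP/PEG/propylene glycol 15 min pre-test at 3 doses; potency as MED, the dose (mpk, range usually 0.3–30) reaching ≥50% total activity.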

[2] = system: male Sprague-Dawley rats; assay: Stress induced hyperthermia (SIH) assay; design: key: −: No change in Delta T ([…]T); +: Significant decrease in Delta T ([…]T) (P < 0.05 vs vehicle)
Source text: Stress-induced hyperthermia (SIH), mediated by the autonomic nervous system, is well known to occur prior to and during exposure to stress and/or anxiety-inducing situations. In many human anxiety disorders, it occurs as an integral part of the pathology and is often considered a representative symptom of the disease, e.g. in generalized anxiety disorder as defined in DSM-IV. In rodents, acute administration of anxiolytic drugs, such as buspirone or chlordiazepoxide (CDP), are known to reduce the SIH response to stressors such as handling, noise, heat, novelty, or pain. The test involves two measures of rectal temperature repeated in the same animal with a 10-minute interval. On the day prior to testing, male Sprague-Dawley rats from Envigo (n=10 per group) were brought to the experimental room approximately one hour before scheduled lights out and singly housed overnight with food and water ad libitum. On the morning of the experiment, animals were first injected with either vehicle or test compound orally by gavage, or CDP (10 mg/kg, i.p.). One hour following injection, each animal was removed from the holding cage and held in a supine position while the rectal temperature was measured by slowly inserting a rectal probe into the animal's rectum at a length of approximately 0.5 cm. The rectal probe was attached to a PhysiTemp digital thermometer (Fisher Scientific) which provides temperature readings at 0.1° C. accuracy. The probe remained inside the animal for approximately 5 seconds or until body temperature reaches stability. This temperature was recorded as the baseline rectal temperature (T1). The animal was immediately placed back to the holding cage and after a 10-min interval the second rectal temperature (T2) was taken using the same procedure as in measuring T1. Before each insertion, the rectal probe was cleaned with an alcohol pad and lubricated with sterile K-Y jelly. All SIH studies were conducted between 8:00-11:00 a.m. The SIH response was calculated as the difference in temperature between the second and first temperature reading (Delta T, […]T). A reduction in […]T relative to the vehicle condition indicates an anxiolytic drug-like response.

[3] = system: Male C57Bl/6J mice; assay: Marble burying test; design: key: −: No reduction in number of marbles buried; +: Significant reduction in number of marbles buried (P < 0.05 vs vehicle)
Method: The marble burying assay is used to evaluate the anxiolytic activity of a test compound. After placement in a novel cage containing glass marbles, mice will bury the marbles. Acute administration of anxiolytic agents, as well as antidepressants, decrease this activity at non-sedating doses. Male C57Bl/6J mice from Jackson Laboratories were used in this study and were acclimatized to the experimental room for at least 1 hour prior to testing. Mice (n=10 per group) were administered sterile water or test compound intraperitoneally (i.p.) or orally by gavage (p.o.), or the positive control chlordiazepoxide (15 mg/kg, i.p.), in 10 mL/kg injection volumes, and returned to their home cages for a 30-minute pretreatment period. The mice were then placed individually in clean cages, containing hard wood bedding and twenty black marbles placed in spaced rows of 4×5. After a 30-minute test session, the number of buried marbles was counted. A marble was considered buried if it was pushed at least two thirds into the bedding. Locomotor activity was monitored by measuring the distance traveled using an overhead camera and Video Tracker Software (ViewPoint Life Sciences Software, France). A reduction in the number of marbles buried relative to the vehicle condition indicates an anxiolytic drug-like effect.

[4] = system: Male C57Bl/6J mice; assay: Amphetamine induced hyperlocomotion assay; design: key: #: Significant increase in total distance traveled (P < 0.05 vs vehicle + AMPH group); −: No change in total distance traveled; Significant decrease in total distance traveled (P < 0.05 vs vehicle + AMPH group); conditions: 3 mg/kg PO Compound + AMPH
Method: Psychostimulants such as amphetamine (AMPH) are frequently used to induce or mimic a manic-like or psychotic-like state. AMPH administration to rodents increases horizontal locomotion, vertical rearing and repetitive stereotyped behaviors, and typical antipsychotic drugs, such as haloperidol, can reduce these behaviors. The antimanic/antipsychotic-like effects of test compounds were evaluated in male C57Bl/6J mice from Jackson Laboratories Mice were acclimatized to the experimental room for at least 1 hour prior to testing. The mice (n=10 per group) were administered vehicle or test compound orally by gavage (10 mL/kg injection volume) and placed individually in the novel open field (OF) chambers (Med Associates) for 30 minutes of baseline activity measurement. Mice were then injected with either water or AMPH (4 mg/kg, i.p., 10 mL/kg) and placed back in the same individual OF chambers for a 60-minute testing session during which the effects of test compounds on stimulant-induced behaviors (total distance traveled, rearing and stereotypy) were measured. A reduction in total distance traveled relative to the vehicle+AMPH condition indicates an antimanic/antipsychotic drug-like response.

[5] = system: Adult male AJ mice; assay: Tail suspension test (TST); design: key: −: No decrease in Mean Total Time Immobile; +: Significant decrease in Mean Total Time Immobile (P < 0.05 vs vehicle); conditions: 3 mg/kg PO
Source text: The tail suspension test (TST) is a rodent screening test for potential (human) antidepressant drugs. It is based on the assumption that an animal will actively try to escape an aversive (stressful) stimulus. If escape is impossible, the animal will eventually stop trying (“give up”). In the TST, a mouse is suspended by the tail so that its body dangles in the air, head downward. Mice initially struggle to face upward and climb to a solid surface. When the animal stops struggling and hangs immobile it is considered to have “given up”. Shorter periods of immobility are characteristic of antidepressant-like activity. Accordingly, longer periods of immobility are considered indicative of a depressive-like state. It has been shown that treatment with an antidepressant drug will decrease the time the animal spends immobile. See generally L. Steru et al., Psychopharmacology (Berl). 1985; 85(3):367-70; B. Thierry et al., Psychopharmacology 1986; 90:284-85.
Adult male AJ mice from Jackson Laboratories received vehicle (sterile water) or test compound orally by gavage, or the positive control desipramine (20 mg/kg, i.p.), in 10 mL/kg injection volumes, 30 min before being subjected to the Tail Suspension Test. In this test, mice are placed in the Tail Suspension chambers (white polyvinylchloride cubicles measuring 33×33×31.75 cm Med Associates, Inc. St. Albans, Vt.) by a piece of transparent (Scotch®) tape attached to the tail, from about the mid-tail, with approximately 2 cm of tape past the end of the tail for 10 min during which the time spent immobile is measured. A reduction in total time immobile relative to the vehicle condition indicates an antidepressant drug-like response.

[6] = system: Male C57Bl/6J mice; assay: Prepulse inhibition of startle (PPI); design: key: −: No change in PPI; +: Significant increase in PPI at one pre-pulse intensity (P < 0.05 vs vehicle); ++: Significant increase in PPI at two pre-pulse intensities (P < 0.05 vs vehicle); +++: Significant increase in PPI at three pre-pulse intensities (P < 0.05 vs vehicle); conditions: 3 mg/kg PO
Source text: The acoustic startle is an unconditioned reflex response to an external auditory stimulus. Prepulse inhibition of startle (PPI) refers to the reduction in the startle response caused by the presentation of a low-intensity auditory stimulus prior to the startle stimulus. The PPI paradigm is used for the study of schizophrenia and antipsychotic action due to the similarities between the results from human and rodent studies. PPI has been used as a tool for the assessment of deficiencies in sensory-motor gating observed in schizophrenia and to screen for potential antipsychotic drugs. Various psychotomimetic drugs, such as phencyclidine (PCP), can disrupt PPI. In mice, antipsychotic drugs such as haloperidol can increase PPI and clozapine can reverse the disruption of PPI induced by PCP.
Male C57Bl/6J mice from Jackson Laboratories were placed in the PPI chambers (Med Associates) for a 5 min session of white noise (70 dB) habituation. After the habituation period, the test session was initiated. The session started with a habituation block of 6 presentations of the startle stimulus alone, followed by 10 PPI blocks, each of which consisted of 6 different types of trials. Trial types were: ‘null’ (no stimuli), ‘startle’ (120 dB), ‘startle plus prepulse’ (4, 8, and 12 dB over background noise, i.e., 74, 78, or 82 dB) and ‘prepulse’ (82 dB). Trial types were presented in a random order within each block. Each trial started with a 50 ms stimulus-free period during which baseline movements were recorded. This was followed by a subsequent 20 ms period during which the prepulse stimulus was presented and responses to the prepulse measured. After a further 100 ms period, the startle stimulus was presented for 40 ms and responses recorded for 100 ms from startle onset. Responses were sampled every ms. The inter-trial interval was variable with an average of 15 s (range from 10 to 20 s). In ‘startle’ trials, the basic auditory startle response was measured. The basic startle response was calculated as the mean startle response of all ‘startle’ trials (i.e., excluding the first habituation block). In ‘startle plus prepulse’ trials, the degree of inhibition of the normal startle was calculated and expressed as a percentage of the basic startle response.
Mice were treated with vehicle or test compound orally by gavage, or haloperidol (1 mg/kg, i.p.), in 10 mL/kg injection volumes, 30 min prior to PPI test. The PPI enclosures were cleaned following each test. An increase in the percent PPI relative to the vehicle condition indicates an antipsychotic drug-like response.

[7] = MED = dose having 50% or more total activity

SMILES	Potency: minimal effective dose (MED), binned [1, 7]	AD: ADHD (probability of activity signature) [1]	AG: analgesic (probability of activity signature) [1]	AX: anxiolytic (probability of activity signature) [1]	CE: cognitive enhancer (probability of activity signature) [1]	DP: anti-depressant (probability of activity signature) [1]	MS: mood stabilizer (probability of activity signature) [1]	PS: anti-psychotic (probability of activity signature) [1]	SD: sedative hypnotic (probability of activity signature) [1]	UN: uncharacterized CNS activity (probability of activity signature) [1]	Delta T ([…]T) ([2]; 10 mg/kg PO)	Delta T ([…]T) ([2]; 30 mg/kg PO)	Marbles Buried ([3]; 3 mg/kg (i.p.))	Marbles Buried ([3]; 10 mg/kg (i.p.))	Delta T ([…]T) ([2]; 3 mg/kg PO)	further results
Cc1cccc2c1[C@@H](N)[C@@H](C)OC2 (single isomer, unassigned) [Example 170]	A (≤3 mpk)	+ (LOQ ≤ + <5%)	++ (5% ≤ ++ <25%)	++ (5% ≤ ++ <25%)	++ (5% ≤ ++ <25%)	++ (5% ≤ ++ <25%)	+ (LOQ ≤ + <5%)	++ (5% ≤ ++ <25%)	+ (LOQ ≤ + <5%)	++++ (50% ≤ ++++)	+	+	−	+		
C[C@@H]1OCc2ccccc2[C@H]1N (single isomer, unassigned) [Example 152]		+ (LOQ ≤ + <5%)	++ (5% ≤ ++ <25%)	+++ (25% ≤ +++ <50%)	++ (5% ≤ ++ <25%)	++ (5% ≤ ++ <25%)	+ (LOQ ≤ + <5%)	++ (5% ≤ ++ <25%)	+ (LOQ ≤ + <5%)	+++ (25% ≤ +++ <50%)	+	+	−	+	+	Potency: minimal effective dose (MED) [1, 7]: A (≤3 mpk); Delta T ([…]T) ([2]; 1 mg/kg PO): +
Cc1ccc2c(c1)[C@H](N)[C@H](C)OC2 [Example 157]	A (≤3 mpk)	+ (LOQ ≤ + <5%)	++ (5% ≤ ++ <25%)	++ (5% ≤ ++ <25%)	++ (5% ≤ ++ <25%)	++ (5% ≤ ++ <25%)	++ (5% ≤ ++ <25%)	+++ (25% ≤ +++ <50%)	+ (LOQ ≤ + <5%)	++++ (50% ≤ ++++)	+	+	−	+	+	
Cc1ccc2c(c1)[C@@H](N)COC2 [Compound 124]																Total Distance Traveled [4]: −; Mean Total Time Immobile [5]: −; Marbles Buried ([3]; 3 mg/kg (p.o.)): −; Effect on Pre-Pulse Inhibition (PPI) [6]: −
